In patent US7179823B1, “5-membered n-heterocyclic compounds with hypoglycemic and hypolipidemic activity” (Takeda Pharmaceutical Company Limited, priority 1999, dated 2007):

Structure (SMILES)	melting point [°C]
O=C(O)CCc1cn(Cc2ccc(OCc3noc(-c4ccccc4)n3)cc2)nc1-c1ccccc1 [Example 85, 3-[3-phenyl-1-[4-(5-phenyl-1,2,4-oxadiazole-3-ylmethoxy)benzyl]-1H-pyrazol-4-yl]propionic acid]	166 to 167
O=C(O)CCc1cn(Cc2ccc(OCc3cccnc3)cc2)nc1-c1ccccc1 [Example 91, 3-[3-phenyl-1-[4-(3-pyridylmethoxy)benzyl]-1H-pyrazol-4-yl]propionic acid]	112 to 113
O=C(O)CCc1cn(Cc2ccc(OCc3ccc(-c4ccccc4)cn3)cc2)nc1-c1ccccc1 [Example 302, 3-[3-phenyl-1-[4-(5-phenyl-2-pyridylmethoxy)benzyl]-1H-pyrazol-4-yl]propionic acid]	149 to 150
O=C(O)CCc1cn(Cc2ccc(OCc3csc(-c4ccccc4)n3)nc2)nc1-c1ccccc1 [Example 300, 3-[3-phenyl-1-[6-(2-phenyl-4-thiazolylmethoxy)-3-pyridylmethyl]-1H-pyrazol-4-yl]propionic acid]	107 to 108
O=C(O)CCc1cn(Cc2ccc(OCc3cccs3)cc2)cc1-c1ccccc1 [Example 20, 3-[4-phenyl-1-[4-(2-thienylmethoxy)benzyl]-3-pyrrolyl]propionic acid]	127 to 128
CCOC(=O)CCc1cn(Cc2ccc(OCc3cn4c(Cl)cccc4n3)cc2)nc1OCC [Example 224, ethyl 3-[1-[4-(5-chloroimidazo[1,2-a]pyridin-2-ylmethoxy)benzyl]-3-ethoxy-1H-pyrazol-4-yl]propionate]	69 to 70
Cc1oc(-c2ccccc2)nc1COc1ccc(Cn2cc(CCC(=O)O)c(-c3ccccc3)c2)cn1 [Example 268, 3-[1-[6-(5-methyl-2-phenyl-4-oxazolylmethoxy)-3-pyridylmethyl]-4-phenyl-3-pyrrolyl]propionic acid]	123 to 124
CCOc1cc(Cn2cc(CCC(=O)O)c(-c3ccccc3)c2)cc(OCc2csc(-c3ccccc3)n2)c1 [Example 274, 3-[1-[3-ethoxy-5-(2-phenyl-4-thiazolylmethoxy)benzyl]-4-phenyl-3-pyrrolyl]propionic acid]	109 to 110
CCOc1nn(Cc2ccc(OCc3cn4c(-c5ccccc5)cccc4n3)cc2)cc1CCC(=O)O [Example 232, 3-[3-ethoxy-1-[4-(5-phenylimidazo[1,2-a]pyridin-2-ylmethoxy)benzyl]-1H-pyrazol-4-yl]propionic acid]	160 to 161

Continued, values first:

melting point [°C]	Structure (SMILES)
93 to 94	CCOC(=O)/C=C/c1cn(Cc2ccc(Oc3ccccc3)cc2)nc1OCc1nc(-c2ccccc2)oc1C [Example 332, ethyl(E)-3-[3-(5-methyl-2-phenyl-4-oxazolylmethoxy)-1-(4-phenoxybenzyl)-1H-pyrazol-4-yl]propenoate]
127 to 128	CCOC(=O)c1cn(Cc2ccc(Oc3ccccc3)cc2)nc1OCc1ccc(OCc2nc(-c3ccccc3)oc2C)c(OC)c1 [Example 324, ethyl 3-[3-methoxy-4-(5-methyl-2-phenyl-4-oxazolylmethoxy)benzyloxy]-1-(4-phenoxybenzyl)-1H-pyrazole-4-carboxylate]
135 to 136	Cc1oc(-c2ccco2)nc1COc1ccc(Cn2cc(CC(=O)O)c(-c3ccccc3)n2)cn1 [Example 316, [1-[6-[2-(2-furyl)-5-methyl-4-oxazolylmethoxy]-3-pyridylmethyl]-3-phenyl-1H-pyrazol-4-yl]acetic acid]
222 to 223	Cc1oc(-c2ccccc2)nc1COc1nn(Cc2ccc(Oc3ccccc3)cc2)cc1C(=O)O [Example 330, 3-(5-methyl-2-phenyl-4-oxazolylmethoxy)-1-(4-phenoxybenzyl)-1H-pyrazole-4-carboxylic acid]
153 to 154	COc1cc(COc2nn(Cc3ccc(Oc4ccccc4)cc3)cc2C(=O)O)ccc1OCc1nc(-c2ccco2)oc1C [Example 322, 3-[4-[2-(2-furyl)-5-methyl-4-oxazolylmethoxy]-3-methoxybenzyloxy]-1-(4-phenoxybenzyl)-1H-pyrazole-4-carboxylic acid]
